Assay results reported in article PMC11904033, “Lanatoside C activates the E3 ligase STUB1 to inhibit FOXP3 transcriptional activity and promote antitumor immunity” (EMBO Molecular Medicine, 2025).

What was measured:
[1] = target: T1, STUB1 TPR domain (STUB1 1-130) (Homo sapiens, UniProt Q9UNE7); assay: isothermal titration calorimetry; format: binding; conditions: read-out: Ka (converted)
T1 construct: N-terminal TPR domain, residues 1-130; ITC: His-tagged from E. coli BL21 (pET-T7-STUB1 1-130-His); thermal shift and point mutants: 1-130-3xFlag6xHis expressed in 293T cells
T1 sequence (Q9UNE7 1-130): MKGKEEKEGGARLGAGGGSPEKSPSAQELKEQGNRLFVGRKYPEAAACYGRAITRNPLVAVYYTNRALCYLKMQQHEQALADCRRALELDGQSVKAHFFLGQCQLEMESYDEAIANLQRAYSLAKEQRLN

[2] = target: T2, STUB1 (Homo sapiens, UniProt Q9UNE7); assay: thermal shift in […] lysate (immunoblot); DARTS; format: biochemical; conditions: 10 uM Lac for 30 min in thermal shift; 30 uM Lac for 3 h in DARTS
T2 construct: full length (303 residues), HA-tagged, ectopically expressed in 293T cells, lysate
T2 sequence (Q9UNE7 1-303): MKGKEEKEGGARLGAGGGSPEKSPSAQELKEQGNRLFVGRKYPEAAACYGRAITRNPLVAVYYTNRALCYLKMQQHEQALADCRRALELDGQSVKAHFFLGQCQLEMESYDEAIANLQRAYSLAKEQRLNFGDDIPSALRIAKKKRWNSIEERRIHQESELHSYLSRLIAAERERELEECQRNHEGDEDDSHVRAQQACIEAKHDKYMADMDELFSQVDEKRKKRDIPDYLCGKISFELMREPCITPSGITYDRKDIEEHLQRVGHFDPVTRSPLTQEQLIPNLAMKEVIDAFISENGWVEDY

With CC(=O)O[C@H]1C[C@H](O[C@H]2[C@@H](O)C[C@H](O[C@H]3[C@@H](O)C[C@H](O[C@H]4CC[C@@]5(C)[C@H](CC[C@@H]6[C@@H]5C[C@@H](O)[C@]5(C)[C@@H](C7=CC(=O)OC7)CC[C@]65O)C4)O[C@@H]3C)O[C@@H]2C)O[C@H](C)[C@H]1O[C@@H]1O[C@H](CO)[C@@H](O)[C@H](O)[C@H]1O [Lanatoside C] the Kd [1] was 7.69 µM and the thermal shift [2] was “Lac directly bound STUB1 as revealed in the thermal shift assay”.
